Data from US20160263116A1, “COMBINATIONS” (GlaxoSmithKline LLC, priority 2012, published 2016).
pEC50, pIC50: −log10 of the molar value.

How the values were obtained:
[1] = tested on: Mero-14 mesothelioma cell line; assay: Anchorage-independent growth-death assay, Mero-14; assay type: cell-based, human; conditions: single agent, 6 days; for pEC50 / pIC50: Homo sapiens, 144 h; for pEC50 / pIC50 / gIC100: anchorage-independent; for pEC50: read-out: dEC50; for pIC50: read-out: gIC50; for Ymin-T0: negative = net cell kill
Procedure: (§1) Five human mesothelioma cell lines were used in these studies. Cells were grown in RPMI1640 media containing 10% FBS, 1% L-glutamine, 1% sodium pyruvate under standard cell culture conditions. The mesothelioma cell lines: Mero-14, Mero-82, NCI-H2052, NO36, and ONE58. The cellular response to Compound A or B was evaluated in an anchorage-independent cell growth assay that quantified the extent of cell growth inhibition and the net change in cell population. The assay was performed in black, clear bottom, untreated 384-well plates (Greiner #781096). It is important to use either non-tissue culture treated or Low Attachment plates to prevent cells from adhering to the plate during the assay. In brief, the assay was performed as described below. A 1% (weight/volume) stock of methylcellulose solution was prepared by dissolving 5 grams of methylcellulose (Sigma #M0512) in 495 mL of cell culture medium. […] Media can be substituted if the cells require different cell culture medium for growth. The dissolution often took a day with vigorous stirring at 4° C. maintaining sterile conditions. Cells were plated into a 384 well plate with assay conditions of 0.65% methylcellulose (final concentration) and 1000 cells per well in a final volume of 48 μL. […] The cells were mixed by inversion to distribute evenly, bubbles were dispersed and 48 μL was placed into the well with a positive displacement pipette. The plates were placed in a cell culture incubator containing 5% CO2 at 37° C. Serial dilution of compound in DMSO was done in a 384 well plate starting with μL of stock compound solution in the first column and 10 μL of DMSO in the other wells. Ten μL from the compound well was transferred into the DMSO containing well, mixed, and the serial dilution was continued with 10 μL transfers across the plate. Then, 4 μL of this DMSO diluted compound was added into wells of a new 384 well plate containing 105 μL of appropriate growth medium. This 'compound plate' was used to dose the assay plates containing cells in methylcellulose. For combination experiments, 20 μL of stock compound solution was a mixture of Compound A and Compound B at the designated ratio. For an example, for 1 to 1 ratio, 10 ul of Compound A at 40 mM and 10 ul of Compound B at 40 mM was mixed to generate ul of stock compound solution with both Compound A and Compound B at 20 mM concentration. […] Serial dilution and compound plate dilution was done as described above. Two μL from each well of the 'compound plate' was added to the individual wells of the 'cell plates' containing the 48 μL of cells in methylcellulose to initiate the assay. These assay plates were placed in the cell culture incubator for 6 days. One 'cell plate' was selected at random and was developed (see below) with Cell [NT] the time compound was added to the remaining cell plates and represents the time equal zero (T0) plate, i.e. it represents the number of cells at the time of compound addition. After 6 days the assay was stopped and the plates were developed by placing a black sticker on bottom of each plate to block light, 25 μL of CTG was added and then plates were incubate for 20 minutes at room temperature. The plates were scanned using a luminescence protocol on the EnVision (Perkin-Elmer). Results were expressed as a percent of the T0 value and plotted against the compound concentration. […] Positive values indicate net cell growth and negative values represent net cell kill. […] The results for the combination were analyzed by determination of Combination Index (CI) values using both mutually exclusive and mutually non-exclusive assumptions (12). The XC50 denotes that each parameter from the growth-death analysis was used, either gIC50 or gIC100 or […] values, to calculate the CI values. The A+B represents the XC50 value for the combination relative to the concentration of A and the B+A represents the XC50 value for the combination relative to the concentration of B in the combination.

[2] = tested on: Mero-82 mesothelioma cell line; assay: Anchorage-independent growth-death assay, Mero-82; assay type: cell-based, human; conditions: single agent, 6 days; for pEC50 / pIC50: Homo sapiens, 144 h; for pEC50 / pIC50 / gIC100: anchorage-independent; for pEC50: read-out: dEC50; for pIC50: read-out: gIC50; for Ymin-T0: negative = net cell kill
Procedure: as §1

[3] = tested on: NCI-H2052 mesothelioma cell line; assay: Anchorage-independent growth-death assay, NCI-H2052; assay type: cell-based, human; conditions: single agent, 6 days; for pIC50: Homo sapiens, 144 h, read-out: gIC50; for Ymin-T0: negative = net cell kill
Procedure: (§2) Five human mesothelioma cell lines were used in these studies. Cells were grown in RPMI1640 media containing 10% FBS, 1% L-glutamine, 1% sodium pyruvate under standard cell culture conditions. The mesothelioma cell lines: Mero-14, Mero-82, NCI-H2052, NO36, and ONE58. The cellular response to Compound A or B was evaluated in an anchorage-independent cell growth assay that quantified the extent of cell growth inhibition and the net change in cell population. The assay was performed in black, clear bottom, untreated 384-well plates (Greiner #781096). It is important to use either non-tissue culture treated or Low Attachment plates to prevent cells from adhering to the plate during the assay. In brief, the assay was performed as described below. A 1% (weight/volume) stock of methylcellulose solution was prepared by dissolving 5 grams of methylcellulose (Sigma #M0512) in 495 mL of cell culture medium. […] Media can be substituted if the cells require different cell culture medium for growth. The dissolution often took a day with vigorous stirring at 4° C. maintaining sterile conditions. Cells were plated into a 384 well plate with assay conditions of 0.65% methylcellulose (final concentration) and 1000 cells per well in a final volume of 48 μL. […] The cells were mixed by inversion to distribute evenly, bubbles were dispersed and 48 μL was placed into the well with a positive displacement pipette. The plates were placed in a cell culture incubator containing 5% CO2 at 37° C. Serial dilution of compound in DMSO was done in a 384 well plate starting with μL of stock compound solution in the first column and 10 μL of DMSO in the other wells. Ten μL from the compound well was transferred into the DMSO containing well, mixed, and the serial dilution was continued with 10 μL transfers across the plate. Then, 4 μL of this DMSO diluted compound was added into wells of a new 384 well plate containing 105 μL of appropriate growth medium. This 'compound plate' was used to dose the assay plates containing cells in methylcellulose. For combination experiments, 20 μL of stock compound solution was a mixture of Compound A and Compound B at the designated ratio. For an example, for 1 to 1 ratio, 10 ul of Compound A at 40 mM and 10 ul of Compound B at 40 mM was mixed to generate ul of stock compound solution with both Compound A and Compound B at 20 mM concentration. […] Serial dilution and compound plate dilution was done as described above. Two μL from each well of the 'compound plate' was added to the individual wells of the 'cell plates' containing the 48 μL of cells in methylcellulose to initiate the assay. These assay plates were placed in the cell culture incubator for 6 days. One 'cell plate' was selected at random and was developed (see below) with Cell [NT] the time compound was added to the remaining cell plates and represents the time equal zero (T0) plate, i.e. it represents the number of cells at the time of compound addition. […] The plates were scanned using a luminescence protocol on the EnVision (Perkin-Elmer). Results were expressed as a percent of the T0 value and plotted against the compound concentration. […] The results for the combination were analyzed by determination of Combination Index (CI) values using both mutually exclusive and mutually non-exclusive assumptions (12). […]

[4] = tested on: NO36 mesothelioma cell line; assay: Anchorage-independent growth-death assay, NO36; assay type: cell-based, human; conditions: single agent, 6 days; for pIC50: Homo sapiens, 144 h, read-out: gIC50; for Ymin-T0: negative = net cell kill
Procedure: as §2

[5] = tested on: ONE58 mesothelioma cell line; assay: Anchorage-independent growth-death assay, ONE58; assay type: cell-based, human; conditions: single agent, 6 days; for pIC50: read-out: gIC50; for Ymin-T0: negative = net cell kill
Procedure: as §1

[6] = tested on: five human mesothelioma cell lines; assay: Anchorage-independent growth-death assay, summary over the cell line panel; assay type: cell-based; conditions: 6 days of compound exposure, FIG. 4
Procedure: Five human mesothelioma cell lines were used in these studies. Cells were grown in RPMI1640 media containing 10% FBS, 1% L-glutamine, 1% sodium pyruvate under standard cell culture conditions. The mesothelioma cell lines: Mero-14, Mero-82, NCI-H2052, NO36, and ONE58.
The cellular response to Compound A or B was evaluated in an anchorage-independent cell growth assay that quantified the extent of cell growth inhibition and the net change in cell population. The assay was performed in black, clear bottom, untreated 384-well plates (Greiner #781096). It is important to use either non-tissue culture treated or Low Attachment plates to prevent cells from adhering to the plate during the assay. In brief, the assay was performed as described below.
A 1% (weight/volume) stock of methylcellulose solution was prepared by dissolving 5 grams of methylcellulose (Sigma #M0512) in 495 mL of cell culture medium. […]
After 6 days the assay was stopped and the plates were developed by placing a black sticker on bottom of each plate to block light, 25 μL of CTG was added and then plates were incubate for 20 minutes at room temperature. The plates were scanned using a luminescence protocol on the EnVision (Perkin-Elmer).
Results were expressed as a percent of the T0 value and plotted against the compound concentration. […]

[7] = Homo sapiens, 144 h, anchorage-independent

CC(=O)Nc1cccc(-n2c(=O)n(C3CC3)c(=O)c3c(Nc4ccc(I)cc4F)n(C)c(=O)c(C)c32)c1 [Compound B, N-{3-[3-cyclopropyl-5-(2-fluoro-4-iodo-phenylamino)-6,8-dimethy-2,4,7-trioxo-3,4,6,7-tetrahydro-2H-pyrido[4,3-d]pyrimidin-1-yl]phenyl}acetamide]
pEC50 [1]: 7.15
pIC50 [1]: 8.18
gIC100 [1]: 26 nM
Ymin-T0 [1]: −78%
pEC50 [2]: 6.72
pIC50 [2]: 8.00
gIC100 [2]: 67 nM
Ymin-T0 [2]: −89%
pIC50 ([3]; anchorage-independent): 7.80
Ymin-T0 [3]: 31%
pIC50 ([4]; anchorage-independent): 6.87
gIC100 ([4]; anchorage-independent): 2345 nM
Ymin-T0 [4]: −17%
pEC50 ([5]; Homo sapiens, 144 h, anchorage-independent, read-out: dEC50): 6.72
pIC50 [5, 7]: 8.06
gIC100 ([5]; anchorage-independent): 0.045 µM
Ymin-T0 [5]: −92%
net change in cell population (Ymin-T0), in words [6]: cytotoxic in three of the five cell lines

CONC(=O)c1ccccc1Nc1cc(Nc2cc(C)nn2C(C)C)ncc1Cl [Compound A, 2-[(5-Chloro-2-{[3-methyl-1-(1-methylethyl)-1H-pyrazol-5-yl]amino}-4-pyridinyl)amino]-N-(methyloxy)benzamide]
pEC50 [1]: 5.02
pIC50 [1]: 7.25
gIC100 [1]: 3888 nM
Ymin-T0 [1]: −52%
pEC50 [2]: 5.16
pIC50 [2]: 7.80
gIC100 [2]: 983 nM
Ymin-T0 [2]: −53%
pIC50 ([3]; anchorage-independent): 6.39
gIC100 ([3]; anchorage-independent): 5.73 µM
Ymin-T0 [3]: −30%
pIC50 ([4]; anchorage-independent): 4.77
Ymin-T0 [4]: 134%
pIC50 [5, 7]: 7.64
gIC100 ([5]; anchorage-independent): 6.135 µM
Ymin-T0 [5]: −14%
net change in cell population (Ymin-T0), in words [6]: generally cytostatic
